Structures are written as SMILES. Structures can show the parent of a compound that is named as a salt.

The test system of data set [1] is cultured rabbit trigeminal nerve cells. Description: Neurite outgrowth promoting effect in cultured rabbit trigeminal nerve cells (Experimental Example 2). Format: cell-based, Japanese White Rabbits. Conditions: cultured for 48 hrs, non-addition group about 31%. The source says:
Japanese White Rabbits (2-3 days old) purchased from KITAYAMA LABES Co., Ltd. were used.
As a ROCK inhibitor, 2-chloro-6,7-dimethoxy-N-[5-1H-indazolyl]quinazoline-4-amine, N-(1-benzyl-4-piperidinyl)-1H-indazole-5-amine dihydrochloride, 4-[2-(2,3,4,5,6-pentafluorophenyl)acryloyl]cinnamic acid and fasudil hydrochloride were used.
2-Chloro-6,7-dimethoxy-N-[5-1H-indazolyl]quinazoline-4-amine (hereinafter to be indicated as compound 1) used was synthesized according to Reference Example 1. N-(1-benzyl-4-piperidinyl)-1H-indazole-5-amine dihydrochloride.½ hydrate (hereinafter to be indicated as compound 2) used was synthesized according to Reference Example 2. 4-[2-(2,3,4,5,6-Pentafluorophenyl)acryloyl]cinnamic acid (hereinafter to be indicated as compound 3) used was synthesized according to Reference Example 3. Fasudil hydrochloride (hereinafter to be indicated as compound 4) used was a commercially available fasudil hydrochloride hydrate injection, “Eril Injection 30 mg” (manufactured by Asahi Kasei Corporation).
Rabbit trigeminal nerve cells were isolated in the same manner as in Experimental Example 1. For cell culture, a culture medium obtained by adding B27 Supplement (manufactured by GIBCO; final concentration 2% v/v) and L-glutamine (manufactured by GIBCO; concentration 1 mM) to neurobasal culture medium (manufactured by GIBCO) was used. A circular cover glass (diameter 12 mm; manufactured by SUMITOMO BAKELITE) after polylysine/laminin coating was placed in each well of a 24 well plate, and cells were plated on the cover glass at about 3×10^3 cells/well. After cell adhesion to the cover glass (about 2 hrs), the above-mentioned culture medium was changed to a culture medium containing each test substance (compound 1, final concentration 10 μM; compound 2, final concentration 10 μM; compound 3, final concentration 1 μM; compound 4, final concentration 10 μM) and the cells were cultured for 48 hrs. […]
A specimen fixed using an anti-neurofilament 200 antibody (manufactured by Sigma) that recognize neurofilaments, which are intermediate filaments specific to nerve cell, and a fluorescent secondary antibody (manufactured by Molecular Probes) reactive therewith was fluorescence stained and the stained cells were detected using a fluorescence microscope. […] The whole cell number (t) of each image was counted. Along therewith, the length of cell neurite and the diameter of cell body were measured using an image analysis software (MacSCOPE, manufactured by MITANI CO.), and the cells having a neurite with a length of not less than twice the diameter of the cell body were counted as neuritogenetic cell (a). Then the rate (%) of the total neuritogenetic cell number (a1+a2+ . . . +an=Σa) to the total cell number (Σt) was calculated. […]

Regarding `O=S(=O)(c1cccc2cnccc12)N1CCCNCC1` [compound 4, Fasudil hydrochloride], the “rate of the neuritogenetic cells relative to the total cells” value in data set [1] (final concentration 10 μM) is on record as “about 70%”.

With `COc1cc2nc(Cl)nc(Nc3ccc4[nH]ncc4c3)c2cc1OC` [compound 1, 2-Chloro-6,7-dimethoxy-N-[5-1H-indazolyl]quinazoline-4-amine], the melting point lay in the range of 278.7 to 283.8 °C. For the same compound, the “rate of the neuritogenetic cells relative to the total cells” value in data set [1] (final concentration 10 μM) is recorded as “about 41%”. Take `Cl.Cl.Cl.Cl.O.c1ccc(CN2CCC(Nc3ccc4[nH]ncc4c3)CC2)cc1.c1ccc(CN2CCC(Nc3ccc4[nH]ncc4c3)CC2)cc1` [compound 2, N-(1-benzyl-4-piperidinyl)-1H-indazole-5-amine dihydrochloride.½ hydrate]: the “rate of the neuritogenetic cells relative to the total cells” value in data set [1] (final concentration 10 μM) was “about 57%”. Turning to `C=C(C(=O)c1ccc(C=CC(=O)O)cc1)c1c(F)c(F)c(F)c(F)c1F` [compound 3, 4-[2-(2,3,4,5,6-Pentafluorophenyl)acryloyl]cinnamic acid], in data set [1] (final concentration 1 μM), the “rate of the neuritogenetic cells relative to the total cells” value is listed as “about 51%”.

The melting point is the temperature of the solid-liquid transition.

The values are drawn from patent publication US20070093513A1, “Agent for repairing corneal perception” (SENJU PHARMACEUTICAL CO., LTD., priority 2003, published 2007).
